Assay results: patent US20070049564A1 (Wyeth, priority 2005, published 2007)
≈ marks a conversion by molar mass, not a printed value. Where two headings read alike, the source gives them in different places.

Assays:
E. coli = experiment: Range of MIC for E. coli strains; conditions: Escherichia coli
Staph. = experiment: Range of MIC for Staph. strains, including MRSA; conditions: Staphylococcus aureus
Staph. aureus Smith = experiment: In vivo activity (oral, iv; ED50) against Staph. aureus Smith in mice
Protocol: Representative examples of compounds of Formula I were tested for the oral efficacy using S. aureus Smith in mice.

[1] = 20 h, read-out: Range of MIC, E. coli (Mouse Serum)
[2] = read-out: Range of MIC, E. coli (Water)
[3] = MRSA, read-out: Range of MIC, Staph (Mouse Serum)
[4] = MRSA, read-out: Range of MIC, Staph (Water)
[5] = Staphylococcus aureus, in Mus musculus, po, read-out: ED50 Staph Smith SOD
[6] = iv, read-out: ED50 Staph Smith SIV
[7] = read-out: Minimum inhibitory concentration (MIC), E. coli (water)
[8] = read-out: Minimum inhibitory concentration (MIC), E. coli (Human Serum)
[9] = read-out: Minimum inhibitory concentration (MIC), Staph (Human Serum)
[10] = read-out: Minimum inhibitory concentration (MIC), Staph (Water)

| Structure (SMILES) | MIC (E. coli; [1]) [µg/mL] | MIC (E. coli; [2]) [µg/mL] | MIC (Staph.; [3]) [µg/mL] | MIC (Staph.; [4]) [µg/mL] | ED50 (Staph. aureus Smith; [5]) [mg/kg] | ED50 (Staph. aureus Smith; [6]) [mg/kg] | MIC (E. coli; read-out: Minimum inhibitory concentration (MIC), E. coli (mouse serum)) [µg/mL] | MIC (E. coli; [7]) [µg/mL] | MIC (Staph.; MRSA, read-out: Minimum inhibitory concentration (MIC), Staph. (mouse serum)) [µg/mL] | MIC (Staph.; MRSA, read-out: Minimum inhibitory concentration (MIC), Staph. (water)) [µg/mL] | MIC (E. coli; read-out: Range of MIC, E. coli (mouse serum)) [µg/mL] | MIC (E. coli; read-out: Range of MIC, E. coli (water)) [µg/mL] | MIC (Staph.; MRSA, read-out: Range of MIC, Staph. (mouse serum)) [µg/mL] | MIC (Staph.; MRSA, read-out: Range of MIC, Staph. (water)) [µg/mL] | MIC (E. coli; [8]) [µg/mL] | MIC (Staph.; [9]) [µg/mL] | MIC (Staph.; [10]) [µg/mL] |
| --- | --- | --- | --- | --- | --- | --- | --- | --- | --- | --- | --- | --- | --- | --- | --- | --- | --- |
| CCCN(CC(=O)Nc1cc(N(C)C)c2c(c1O)C(=O)C1=C(O)[C@]3(O)C(=O)C(C(N)=O)=C(O)[C@@H](N(C)C)[C@@H]3C[C@@H]1C2)C(=O)OCOC(=O)C(C)(C)CC [Example 37, ({[(2-{[(5aR,6aS,7S,10aS)-9-(aminocarbonyl)-4,7-bis(dimethylamino)-1,8,10a,11-tetrahydroxy-10,12-dioxo-5,5a,6,6a,7,10,10a,12-octahydrotetracen-2-yl]amino}-2-oxoethyl)(propyl)amino]carbonyl}oxy)methyl 2,2-dimethylbutanoate] | 2 to 4 (≈ 2.69 to 5.38 µM) | 4 to 32 (≈ 5.38 to 43 µM) | 1 to 4 (≈ 1.34 to 5.38 µM) | 2 to 4 (≈ 2.69 to 5.38 µM) | 4.1 | 0.55 |  |  |  |  |  |  |  |  |  |  |  |
| CCCCN(CC(=O)Nc1cc(N(C)C)c2c(c1O)C(=O)C1=C(O)[C@]3(O)C(=O)C(C(N)=O)=C(O)[C@@H](N(C)C)[C@@H]3C[C@@H]1C2)C(=O)OCOC(=O)C12CC3CC(CC(C3)C1)C2 [Example 39, ({[(2-{[(5aR,6aS,7S,10aS)-9-(aminocarbonyl)-4,7-bis(dimethylamino)-1,8,10a,11-tetrahydroxy-10,12-dioxo-5,5a,6,6a,7,10,10a,12-octahydrotetracen-2-yl]amino}-2-oxoethyl)(butyl)amino]carbonyl}oxy)methyl adamantane-1-carboxylate] | 1 to 4 (≈ 1.22 to 4.87 µM) | 16 to 32 (≈ 19.5 to 38.9 µM) | 1 to 4 (≈ 1.22 to 4.87 µM) | 2 to 16 (≈ 2.43 to 19.5 µM) | 13.3 | 0.6 | 1 to 4 (≈ 1.22 to 4.87 µM) | 16 to 32 (≈ 19.5 to 38.9 µM) | 1 to 4 (≈ 1.22 to 4.87 µM) | 2 to 16 (≈ 2.43 to 19.5 µM) |  |  |  |  |  |  |  |
| CCCN(CC(=O)Nc1cc(N(C)C)c2c(c1O)C(=O)C1=C(O)[C@]3(O)C(=O)C(C(N)=O)=C(O)[C@@H](N(C)C)[C@@H]3C[C@@H]1C2)C(=O)OCOC(=O)C12CC3CC(CC(C3)C1)C2 [Example 41, ({[(2-{[(5aR,6aS,7S,10aS)-9-(aminocarbonyl)-4,7-bis(dimethylamino)-1,8,10a,11-tetrahydroxy-10,12-dioxo-5,5a,6,6a,7,10,10a,12-octahydrotetracen-2-yl]amino}-2-oxoethyl)(propyl)amino]carbonyl}oxy)methyl adamantane-1-carboxylate] | 0.5 to 4 (≈ 0.619 to 4.95 µM) | 16 to 64 (≈ 19.8 to 79.2 µM) | 0.5 to 4 (≈ 0.619 to 4.95 µM) | 1 to 8 (≈ 1.24 to 9.9 µM) | 11.3 | 0.83 |  |  |  |  | 0.5 to 4 (≈ 0.619 to 4.95 µM) | 16 to 64 (≈ 19.8 to 79.2 µM) | 0.5 to 4 (≈ 0.619 to 4.95 µM) | 1 to 8 (≈ 1.24 to 9.9 µM) |  |  |  |
| CN(C)c1cc(NC(=O)CN(C(=O)OCOC(=O)C2CC2)C(C)(C)C)c(O)c2c1C[C@H]1C[C@H]3[C@H](N(C)C)C(O)=C(C(N)=O)C(=O)[C@@]3(O)C(O)=C1C2=O [Example 56, ({[(2-{[(5aR,6aS,7S,10aS)-9-(aminocarbonyl)-4,7-bis(dimethylamino)-1,8,10a,11-tetrahydroxy-10,12-dioxo-5,5a,6,6a,7,10,10a,12-octahydrotetracen-2-yl]amino}-2-oxoethyl)(tert-butyl)amino]carbonyl}oxy)methyl cyclopropanecarboxylate] | 0.25 to 2 (≈ 0.344 to 2.75 µM) |  | 0.25 to 1 (≈ 0.344 to 1.37 µM) | 1 to 4 (≈ 1.37 to 5.5 µM) | > 16 | 0.79 |  |  |  |  |  |  |  |  | 4 to 32 (≈ 5.5 to 44 µM) | 0.25 to 2 (≈ 0.344 to 2.75 µM) | 1 to 4 (≈ 1.37 to 5.5 µM) |
| CN(C)c1cc(NC(=O)CN(C(=O)OCOC(=O)C23CC4CC(CC(C4)C2)C3)C(C)(C)C)c(O)c2c1C[C@H]1C[C@H]3[C@H](N(C)C)C(O)=C(C(N)=O)C(=O)[C@@]3(O)C(O)=C1C2=O [Example 57, ({[(2-{[(5aR,6aS,7S,10aS)-9-(aminocarbonyl)-4,7-bis(dimethylamino)-1,8,10a,11-tetrahydroxy-10,12-dioxo-5,5a,6,6a,7,10,10a,12-octahydrotetracen-2-yl]amino}-2-oxoethyl)(tert-butyl)amino]carbonyl}oxy)methyl adamantane-1-carboxylate] | 0.5 to 4 (≈ 0.608 to 4.87 µM) | > 64 | 0.5 to 2 (≈ 0.608 to 2.43 µM) | 4 to 16 (≈ 4.87 to 19.5 µM) | 6.36 | 1.17 |  | > 64 |  |  |  |  |  |  | > 64 | 1 to 8 (≈ 1.22 to 9.73 µM) | 4 to 16 (≈ 4.87 to 19.5 µM) |
| CN(C)c1cc(NC(=O)CN(C(=O)OCOC(=O)c2cccc3ccccc23)C(C)(C)C)c(O)c2c1C[C@H]1C[C@H]3[C@H](N(C)C)C(O)=C(C(N)=O)C(=O)[C@@]3(O)C(O)=C1C2=O [Example 81, ({[(2-{[(5aR,6aS,7S,10aS)-9-(aminocarbonyl)-4,7-bis(dimethylamino)-1,8,10a,11-tetrahydroxy-10,12-dioxo-5,5a,6,6a,7,10,10a,12-octahydrotetracen-2-yl]amino}-2-oxoethyl)(tert-butyl)amino]carbonyl}oxy)methyl 1-naphthoate] | 0.5 to 1 (≈ 0.614 to 1.23 µM) | 8 to 16 (≈ 9.83 to 19.7 µM) | 0.5 to 2 (≈ 0.614 to 2.46 µM) | 4 to 8 (≈ 4.91 to 9.83 µM) | 16 to 32 | > 4 |  |  |  |  |  |  |  |  |  |  |  |
| CN(C)c1cc(NC(=O)CN(C(=O)OCOC(=O)c2ccc3ccccc3c2)C(C)(C)C)c(O)c2c1C[C@H]1C[C@H]3[C@H](N(C)C)C(O)=C(C(N)=O)C(=O)[C@@]3(O)C(O)=C1C2=O [Example 82, ({[(2-{[(5aR,6aS,7S,10aS)-9-(aminocarbonyl)-4,7-bis(dimethylamino)-1,8,10a,11-tetrahydroxy-10,12-dioxo-5,5a,6,6a,7,10,10a,12-octahydrotetracen-2-yl]amino}-2-oxoethyl)(tert-butyl)amino]carbonyl}oxy)methyl 2-naphthoate] |  | > 64 | 4 to 6 (≈ 4.91 to 7.37 µM) | 4 to 8 (≈ 4.91 to 9.83 µM) | 22 | 0.52 |  |  |  |  |  |  |  |  |  |  |  |
| CN(C)c1cc(NC(=O)CN(C(=O)OCOC(=O)c2c(F)cccc2F)C(C)(C)C)c(O)c2c1C[C@H]1C[C@H]3[C@H](N(C)C)C(O)=C(C(N)=O)C(=O)[C@@]3(O)C(O)=C1C2=O [Example 90, ({[(2-{[(5aR,6aS,7S,10aS)-9-(aminocarbonyl)-4,7-bis(dimethylamino)-1,8,10a,11-tetrahydroxy-10,12-dioxo-5,5a,6,6a,7,10,10a,12-octahydrotetracen-2-yl]amino}-2-oxoethyl)(tert-butyl)amino]carbonyl}oxy)methyl 2,6-difluorobenzoate] | 2 to 4 (≈ 2.5 to 5 µM) | > 64 | 0.25 to 2 (≈ 0.313 to 2.5 µM) | 1 to 16 (≈ 1.25 to 20 µM) | 16 to 32 | 0.5 to 1 |  |  |  |  |  |  |  |  |  |  |  |
| CN(C)c1cc(NC(=O)CN(C(=O)OCOC(=O)c2ccccc2F)C(C)(C)C)c(O)c2c1C[C@H]1C[C@H]3[C@H](N(C)C)C(O)=C(C(N)=O)C(=O)[C@@]3(O)C(O)=C1C2=O [Example 91, ({[(2-{[(5aR,6aS,7S,10aS)-9-(aminocarbonyl)-4,7-bis(dimethylamino)-1,8,10a,11-tetrahydroxy-10,12-dioxo-5,5a,6,6a,7,10,10a,12-octahydrotetracen-2-yl]amino}-2-oxoethyl)(tert-butyl)amino]carbonyl}oxy)methyl 2-fluorobenzoate] | 0.5 to 2 (≈ 0.64 to 2.56 µM) | > 64 | 0.12 to 0.25 (≈ 0.153 to 0.32 µM) | 0.25 to 2 (≈ 0.32 to 2.56 µM) | 11.7 | 1.21 |  |  |  |  |  |  |  |  |  |  |  |
| CN(C)c1cc(NC(=O)CN(C(=O)OCOC(=O)c2ccc(N3CCCC3)cc2)C(C)(C)C)c(O)c2c1C[C@H]1C[C@H]3[C@H](N(C)C)C(O)=C(C(N)=O)C(=O)[C@@]3(O)C(O)=C1C2=O [Example 93, ({[(2-{[(5aR,6aS,7S,10aS)-9-(aminocarbonyl)-4,7-bis(dimethylamino)-1,8,10a,11-tetrahydroxy-10,12-dioxo-5,5a,6,6a,7,10,10a,12-octahydrotetracen-2-yl]amino}-2-oxoethyl)(tert-butyl)amino]carbonyl}oxy)methyl 4-pyrrolidin-1-ylbenzoate] | 1 to 4 (≈ 1.2 to 4.8 µM) |  | 1 to 2 (≈ 1.2 to 2.4 µM) | 32 to 64 (≈ 38.4 to 76.8 µM) | > 32 | 0.5 to 1 |  |  |  |  |  |  |  |  |  |  |  |
| CCCCN(CC(=O)Nc1cc(N(C)C)c2c(c1O)C(=O)C1=C(O)[C@]3(O)C(=O)C(C(N)=O)=C(O)[C@@H](N(C)C)C3CC1C2)C(=O)OCc1oc(=O)oc1-c1ccccc1 (stereo partly drawn) [Example 112, (2-oxo-5-phenyl-1,3-dioxol-4-yl)methyl 2-{[(7S,10aS)-9-(aminocarbonyl)-4,7-bis(dimethylamino)-1,8,10a,11-tetrahydroxy-10,12-dioxo-5,5a,6,6a,7,10,10a,12-octahydrotetracen-2-yl]amino}-2-oxoethyl(butyl)carbamate] | 1 to 4 (≈ 1.24 to 4.98 µM) | 2 to 8 (≈ 2.49 to 9.95 µM) | 2 to 8 (≈ 2.49 to 9.95 µM) | 4 to 16 (≈ 4.98 to 19.9 µM) | 6.12 | 0.48 |  |  |  |  |  |  |  |  |  |  |  |
| CCCCN(CC(=O)Nc1cc(N(C)C)c2c(c1O)C(=O)C1=C(O)[C@]3(O)C(=O)C(C(N)=O)=C(O)[C@@H](N(C)C)C3CC1C2)C(=O)OCc1oc(=O)oc1-c1ccc(OC)cc1 (stereo partly drawn) [Example 113, [5-(4-methoxyphenyl)-2-oxo-1,3-dioxol-4-yl]methyl 2-{[(7S,10aS)-9-(aminocarbonyl)-4,7-bis(dimethylamino)-1,8,10a,11-tetrahydroxy-10,12-dioxo-5,5a,6,6a,7,10,10a,12-octahydrotetracen-2-yl]amino}-2-oxoethyl(butyl)carbamate] | 1 to 4 (≈ 1.2 to 4.8 µM) | 2 to 16 (≈ 2.4 to 19.2 µM) | 4 to 16 (≈ 4.8 to 19.2 µM) | 4 to 32 (≈ 4.8 to 38.4 µM) | 7.01 | 0.4 |  |  |  |  |  |  |  |  |  |  |  |
